Columns and labels:
Format in all cases: in vivo
[1] = tested on: ABUTH, Velvetleaf, Abutilon theophrasti, Medic.; experiment: Postemergence herbicidal evaluation (Example 147); settings: rating scale 0-9, two to three weeks after treatment
Outline: (§1)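 Spray carrier: 80/20 acetone/water, 1.0% SUN-IT II methylated seed oil; rate about 0.016 to 0.032 kg/ha at 40 psi onto two-week seedlings. Assessment: plant stand, vigor, chlorosis and malformation scored 0-9 versus control, two to three weeks after treatment.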

[2] = tested on: ALOMY, Blackgrass, Alopecurus myosuroides; experiment: Postemergence herbicidal evaluation (Example 147); settings: rating scale 0-9, two to three weeks after treatment
Outline: as §1

[3] = tested on: AMBEL, Ragweed, Common, Ambrosia artemiisifolia, L.; experiment: Postemergence herbicidal evaluation (Example 147); settings: rating scale 0-9, two to three weeks after treatment
Outline: as §1

[4] = tested on: CHEAL, Lambsquarters, Chenopodium album, L. Common; experiment: Postemergence herbicidal evaluation (Example 147); settings: rating scale 0-9, two to three weeks after treatment
Outline: as §1

[5] = tested on: DIGSA, Crabgrass, (Hairy) L, Digitaria sanguinalis, (L)Scop; experiment: Postemergence herbicidal evaluation (Example 147); settings: rating scale 0-9, two to three weeks after treatment
Outline: as §1

[6] = tested on: ECHCG, Barnyardgrass, Echinochloa crusgalli, (L.)Beau; experiment: Postemergence herbicidal evaluation (Example 147); settings: rating scale 0-9, two to three weeks after treatment
Outline: as §1

[7] = tested on: GLXMA, Soybean, Glycine max, (L.) Merr.; experiment: Postemergence herbicidal evaluation (Example 147); settings: rating scale 0-9, two to three weeks after treatment
Outline: as §1

[8] = tested on: IPOHE, Morningglory, Ivyleaf, Ipomoea hederacea, (L)Jacq.; experiment: Postemergence herbicidal evaluation (Example 147); settings: rating scale 0-9, two to three weeks after treatment
Outline: as §1

[9] = tested on: SETVI, Green foxtail, Setaria viridis, (L.)Beau; experiment: Postemergence herbicidal evaluation (Example 147); settings: rating scale 0-9, two to three weeks after treatment
Outline: as §1

[10] = tested on: TRZAW, Winter wheat, Tritium Aestivum, L. (Winter); experiment: Postemergence herbicidal evaluation (Example 147); settings: rating scale 0-9, two to three weeks after treatment
Outline: as §1

[11] = tested on: XANST, Cocklebur, Xanthium strumariam; experiment: Postemergence herbicidal evaluation (Example 147); settings: rating scale 0-9, two to three weeks after treatment
Outline: as §1

[12] = tested on: ZEAMX, Field corn, Zea mays L.; experiment: Postemergence herbicidal evaluation (Example 147); settings: rating scale 0-9, two to three weeks after treatment
Outline: as §1

[13] = tested on: ABUTH, Velvetleaf, Abutilon theophrasti, Medic.; experiment: Preemergence herbicidal evaluation (Example 148); settings: rating scale 0-9, two to four weeks after treatment
Outline: (§2)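 Following sowing, cups received a soil spray of the compound dissolved in aqueous acetone, dosed to about 0.125 to 0.250 kg per hectare. Growth continued in the greenhouse under routine care before visual scoring at two to four weeks.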

[14] = tested on: ALOMY, Blackgrass, Alopecurus myosuroides; experiment: Preemergence herbicidal evaluation (Example 148); settings: rating scale 0-9, two to four weeks after treatment
Outline: as §2

[15] = tested on: AMBEL, Ragweed, Common, Ambrosia artemiisifolia, L.; experiment: Preemergence herbicidal evaluation (Example 148); settings: rating scale 0-9, two to four weeks after treatment
Outline: as §2

[16] = tested on: CHEAL, Lambsquarters, Chenopodium album, L. Common; experiment: Preemergence herbicidal evaluation (Example 148); settings: rating scale 0-9, two to four weeks after treatment
Outline: as §2

[17] = tested on: DIGSA, Crabgrass, (Hairy) L, Digitaria sanguinalis, (L)Scop; experiment: Preemergence herbicidal evaluation (Example 148); settings: rating scale 0-9, two to four weeks after treatment
Outline: as §2

[18] = tested on: ECHCG, Barnyardgrass, Echinochloa crusgalli, (L.)Beau; experiment: Preemergence herbicidal evaluation (Example 148); settings: rating scale 0-9, two to four weeks after treatment
Outline: as §2

[19] = tested on: GLXMA, Soybean, Glycine max, (L.) Merr.; experiment: Preemergence herbicidal evaluation (Example 148); settings: rating scale 0-9, two to four weeks after treatment
Outline: as §2

[20] = tested on: IPOHE, Morningglory, Ivyleaf, Ipomoea hederacea, (L)Jacq.; experiment: Preemergence herbicidal evaluation (Example 148); settings: rating scale 0-9, two to four weeks after treatment
Outline: as §2

[21] = tested on: SETVI, Green foxtail, Setaria viridis, (L.)Beau; experiment: Preemergence herbicidal evaluation (Example 148); settings: rating scale 0-9, two to four weeks after treatment
Outline: as §2

[22] = tested on: TRZAW, Winter wheat, Tritium Aestivum, L. (Winter); experiment: Preemergence herbicidal evaluation (Example 148); settings: rating scale 0-9, two to four weeks after treatment
Outline: as §2

[23] = tested on: XANST, Cocklebur, Xanthium strumariam; experiment: Preemergence herbicidal evaluation (Example 148); settings: rating scale 0-9, two to four weeks after treatment
Outline: as §2

[24] = tested on: ZEAMX, Field corn, Zea mays L.; experiment: Preemergence herbicidal evaluation (Example 148); settings: rating scale 0-9, two to four weeks after treatment
Outline: as §2

In the case of COc1ccc(CNS(=O)(=O)NC(=O)c2cc(-n3c(=O)cc(C(F)(F)F)n(C)c3=O)c(F)cc2Cl)cc1 [Example 82], the “Postemergence herbicidal rating ABUTH” value ([1]; rate 0.016 kg/ha) is reported as 9.0, the “Postemergence herbicidal rating ABUTH” value ([1]; rate 0.032 kg/ha) is reported as 9.0 and the “Postemergence herbicidal rating ALMOY” value ([2]; rate 0.016 kg/ha) is reported as 1.0. For the same molecule, the “Postemergence herbicidal rating ALMOY” value ([2]; rate 0.032 kg/ha) was 2.0, the “Postemergence herbicidal rating AMBEL” value ([3]; rate 0.016 kg/ha) was 9.0 and the “Postemergence herbicidal rating AMBEL” value ([3]; rate 0.032 kg/ha) was 9.0. For the same molecule, the “Postemergence herbicidal rating CHEAL” value ([4]; rate 0.016 kg/ha) was 9.0, the “Postemergence herbicidal rating CHEAL” value ([4]; rate 0.032 kg/ha) was 9.0 and the “Postemergence herbicidal rating DIGSA” value ([5]; rate 0.016 kg/ha) was 3.0. For the same molecule, the “Postemergence herbicidal rating DIGSA” value ([5]; rate 0.032 kg/ha) was 3.0, the “Postemergence herbicidal rating ECHCG” value ([6]; rate 0.016 kg/ha) was 7.0 and the “Postemergence herbicidal rating ECHCG” value ([6]; rate 0.032 kg/ha) was 8.0. The “Postemergence herbicidal rating GLXMA” value ([7]; rate 0.016 kg/ha) was 8.0, the “Postemergence herbicidal rating GLXMA” value ([7]; rate 0.032 kg/ha) was 8.5 and the “Postemergence herbicidal rating IPOHE” value ([8]; rate 0.016 kg/ha) was 9.0. The “Postemergence herbicidal rating IPOHE” value ([8]; rate 0.032 kg/ha) was 9.0, the “Postemergence herbicidal rating SETVI” value ([9]; rate 0.016 kg/ha) was 6.0 and the “Postemergence herbicidal rating SETVI” value ([9]; rate 0.032 kg/ha) was 7.0. For the same molecule, the “Postemergence herbicidal rating TRZAW” value ([10]; rate 0.016 kg/ha) was 5.5, the “Postemergence herbicidal rating TRZAW” value ([10]; rate 0.032 kg/ha) was 6.0 and the “Postemergence herbicidal rating XANST” value ([11]; rate 0.016 kg/ha) was 9.0. For the same molecule, the “Postemergence herbicidal rating XANST” value ([11]; rate 0.032 kg/ha) was 9.0, the “Postemergence herbicidal rating ZEAMX” value ([12]; rate 0.016 kg/ha) was 6.5 and the “Postemergence herbicidal rating ZEAMX” value ([12]; rate 0.032 kg/ha) was 6.5. The “Preemergence herbicidal rating ABUTH” value ([13]; rate 0.125 kg/ha) was 9.0, the “Preemergence herbicidal rating ABUTH” value ([13]; rate 0.25 kg/ha) was 9.0 and the “Preemergence herbicidal rating ALMOY” value ([14]; rate 0.125 kg/ha) was 0.0. For the same molecule, the “Preemergence herbicidal rating ALMOY” value ([14]; rate 0.25 kg/ha) was 0.0, the “Preemergence herbicidal rating AMBEL” value ([15]; rate 0.125 kg/ha) was 9.0 and the “Preemergence herbicidal rating AMBEL” value ([15]; rate 0.25 kg/ha) was 9.0. For the same molecule, the “Preemergence herbicidal rating CHEAL” value ([16]; rate 0.125 kg/ha) was 9.0, the “Preemergence herbicidal rating CHEAL” value ([16]; rate 0.25 kg/ha) was 9.0 and the “Preemergence herbicidal rating DIGSA” value ([17]; rate 0.125 kg/ha) was 4.0. The “Preemergence herbicidal rating DIGSA” value ([17]; rate 0.25 kg/ha) was 4.0, the “Preemergence herbicidal rating ECHCG” value ([18]; rate 0.125 kg/ha) was 3.0 and the “Preemergence herbicidal rating ECHCG” value ([18]; rate 0.25 kg/ha) was 4.0. For the same molecule, the “Preemergence herbicidal rating GLXMA” value ([19]; rate 0.125 kg/ha) was 9.0, the “Preemergence herbicidal rating GLXMA” value ([19]; rate 0.25 kg/ha) was 9.0 and the “Preemergence herbicidal rating IPOHE” value ([20]; rate 0.125 kg/ha) was 9.0. The “Preemergence herbicidal rating IPOHE” value ([20]; rate 0.25 kg/ha) was 9.0, the “Preemergence herbicidal rating SETVI” value ([21]; rate 0.125 kg/ha) was 3.0 and the “Preemergence herbicidal rating SETVI” value ([21]; rate 0.25 kg/ha) was 7.0. The “Preemergence herbicidal rating TRZAW” value ([22]; rate 0.125 kg/ha) was 0.0, the “Preemergence herbicidal rating TRZAW” value ([22]; rate 0.25 kg/ha) was 1.0 and the “Preemergence herbicidal rating XANST” value ([23]; rate 0.125 kg/ha) was 9.0. The “Preemergence herbicidal rating XANST” value ([23]; rate 0.25 kg/ha) was 9.0, the “Preemergence herbicidal rating ZEAMX” value ([24]; rate 0.125 kg/ha) was 0.0 and the “Preemergence herbicidal rating ZEAMX” value ([24]; rate 0.25 kg/ha) was 2.0.

With C#CCN(C)S(=O)(=O)NC(=O)c1cc(-n2c(=O)cc(C(F)(F)F)n(C)c2=O)c(F)cc1Cl [Example 57] the “Postemergence herbicidal rating ABUTH” value ([1]; rate 0.016 kg/ha) was 2.0, the “Postemergence herbicidal rating ABUTH” value ([1]; rate 0.032 kg/ha) was 5.0 and the “Postemergence herbicidal rating ALMOY” value ([2]; rate 0.016 kg/ha) was 0.0. For the same molecule, the “Postemergence herbicidal rating ALMOY” value ([2]; rate 0.032 kg/ha) was 1.0, the “Postemergence herbicidal rating AMBEL” value ([3]; rate 0.016 kg/ha) was 1.0 and the “Postemergence herbicidal rating AMBEL” value ([3]; rate 0.032 kg/ha) was 2.0. The “Postemergence herbicidal rating CHEAL” value ([4]; rate 0.016 kg/ha) was 1.0, the “Postemergence herbicidal rating CHEAL” value ([4]; rate 0.032 kg/ha) was 2.0 and the “Postemergence herbicidal rating DIGSA” value ([5]; rate 0.016 kg/ha) was 1.0. The “Postemergence herbicidal rating DIGSA” value ([5]; rate 0.032 kg/ha) was 2.0, the “Postemergence herbicidal rating ECHCG” value ([6]; rate 0.016 kg/ha) was 1.0 and the “Postemergence herbicidal rating ECHCG” value ([6]; rate 0.032 kg/ha) was 2.0. For the same molecule, the “Postemergence herbicidal rating GLXMA” value ([7]; rate 0.016 kg/ha) was 6.0, the “Postemergence herbicidal rating GLXMA” value ([7]; rate 0.032 kg/ha) was 6.5 and the “Postemergence herbicidal rating IPOHE” value ([8]; rate 0.016 kg/ha) was 6.0. The “Postemergence herbicidal rating IPOHE” value ([8]; rate 0.032 kg/ha) was 4.0, the “Postemergence herbicidal rating SETVI” value ([9]; rate 0.016 kg/ha) was 1.0 and the “Postemergence herbicidal rating SETVI” value ([9]; rate 0.032 kg/ha) was 3.0. For the same molecule, the “Postemergence herbicidal rating TRZAW” value ([10]; rate 0.016 kg/ha) was 2.0, the “Postemergence herbicidal rating TRZAW” value ([10]; rate 0.032 kg/ha) was 2.5 and the “Postemergence herbicidal rating XANST” value ([11]; rate 0.016 kg/ha) was 2.0. For the same molecule, the “Postemergence herbicidal rating XANST” value ([11]; rate 0.032 kg/ha) was 3.0, the “Postemergence herbicidal rating ZEAMX” value ([12]; rate 0.016 kg/ha) was 2.0 and the “Postemergence herbicidal rating ZEAMX” value ([12]; rate 0.032 kg/ha) was 5.0. For the same molecule, the “Preemergence herbicidal rating ABUTH” value ([13]; rate 0.125 kg/ha) was 2.0, the “Preemergence herbicidal rating ABUTH” value ([13]; rate 0.25 kg/ha) was 2.0 and the “Preemergence herbicidal rating ALMOY” value ([14]; rate 0.125 kg/ha) was 0.0. For the same molecule, the “Preemergence herbicidal rating ALMOY” value ([14]; rate 0.25 kg/ha) was 0.0, the “Preemergence herbicidal rating AMBEL” value ([15]; rate 0.125 kg/ha) was 2.0 and the “Preemergence herbicidal rating AMBEL” value ([15]; rate 0.25 kg/ha) was 2.0. For the same molecule, the “Preemergence herbicidal rating CHEAL” value ([16]; rate 0.125 kg/ha) was 6.0, the “Preemergence herbicidal rating CHEAL” value ([16]; rate 0.25 kg/ha) was 8.0 and the “Preemergence herbicidal rating DIGSA” value ([17]; rate 0.125 kg/ha) was 1.0. For the same molecule, the “Preemergence herbicidal rating DIGSA” value ([17]; rate 0.25 kg/ha) was 3.0, the “Preemergence herbicidal rating ECHCG” value ([18]; rate 0.125 kg/ha) was 1.0 and the “Preemergence herbicidal rating ECHCG” value ([18]; rate 0.25 kg/ha) was 2.0. The “Preemergence herbicidal rating GLXMA” value ([19]; rate 0.125 kg/ha) was 0.0, the “Preemergence herbicidal rating GLXMA” value ([19]; rate 0.25 kg/ha) was 1.0 and the “Preemergence herbicidal rating IPOHE” value ([20]; rate 0.125 kg/ha) was 0.0. The “Preemergence herbicidal rating IPOHE” value ([20]; rate 0.25 kg/ha) was 3.0, the “Preemergence herbicidal rating SETVI” value ([21]; rate 0.125 kg/ha) was 0.0 and the “Preemergence herbicidal rating SETVI” value ([21]; rate 0.25 kg/ha) was 1.0. For the same molecule, the “Preemergence herbicidal rating TRZAW” value ([22]; rate 0.125 kg/ha) was 0.0, the “Preemergence herbicidal rating TRZAW” value ([22]; rate 0.25 kg/ha) was 0.0 and the “Preemergence herbicidal rating XANST” value ([23]; rate 0.125 kg/ha) was 0.0. The “Preemergence herbicidal rating XANST” value ([23]; rate 0.25 kg/ha) was 0.0, the “Preemergence herbicidal rating ZEAMX” value ([24]; rate 0.125 kg/ha) was 0.0 and the “Preemergence herbicidal rating ZEAMX” value ([24]; rate 0.25 kg/ha) was 0.0.

Source: patent US6689773B2, “Uracil substituted phenyl sulfamoyl carboxamides” (BASF Aktiengesellschaft, priority 2000, dated 2004)
